# Reference: US20250154123A1, “COOLING COMPOUNDS AND COMPOSITIONS” (V. MANE FILS, priority 2022, published 2025)
# Tests used:
# [1] = target: T1, hTRPM8 (Homo sapiens, UniProt Q7Z2W7); assay: Secondary in vitro screening on hTRPM8 at 5 μM versus WS-3; assay type: cell-based; conditions: WS3 as reference compound
# T1 construct: expressed in transfected cells; host or cells: CHO-KJ cells [sic]
# Description: (§1) The compounds were evaluated in vitro on CHO-KJ cells expressing the gene encoding the hTRPM8 ion channel (Table 1). Channel activation is determined by fluorometric measurement of […] calcium using FLUO-8. The activity of the compounds was measured relative to icilin (known hTRPM8 agonist).
# The compounds 1 to 40 were tested on hTRPM8 at 5 μM using WS3 as the reference compound (Table 2).
# [2] = target: T2, hTRPM8 ion channel (Homo sapiens, UniProt Q7Z2W7); assay: Primary in vitro screening on hTRPM8 (CHO-KJ cells, FLUO-8 calcium fluorometry, relative to icilin); assay type: cell-based; conditions: for % activation vs iciline: CHO-KJ cells expressing hTRPM8; for activation on hTRPM8 compared with comparative molecules (Physcool, WS-5, WS-3, l-isopulegol, l-menthol, menthyl lactate): primary screening, Table 1
# T2 construct: expressed in transfected cells; host or cells: CHO-KJ cells [sic]
# T2 sequence (Q7Z2W7 whole entry): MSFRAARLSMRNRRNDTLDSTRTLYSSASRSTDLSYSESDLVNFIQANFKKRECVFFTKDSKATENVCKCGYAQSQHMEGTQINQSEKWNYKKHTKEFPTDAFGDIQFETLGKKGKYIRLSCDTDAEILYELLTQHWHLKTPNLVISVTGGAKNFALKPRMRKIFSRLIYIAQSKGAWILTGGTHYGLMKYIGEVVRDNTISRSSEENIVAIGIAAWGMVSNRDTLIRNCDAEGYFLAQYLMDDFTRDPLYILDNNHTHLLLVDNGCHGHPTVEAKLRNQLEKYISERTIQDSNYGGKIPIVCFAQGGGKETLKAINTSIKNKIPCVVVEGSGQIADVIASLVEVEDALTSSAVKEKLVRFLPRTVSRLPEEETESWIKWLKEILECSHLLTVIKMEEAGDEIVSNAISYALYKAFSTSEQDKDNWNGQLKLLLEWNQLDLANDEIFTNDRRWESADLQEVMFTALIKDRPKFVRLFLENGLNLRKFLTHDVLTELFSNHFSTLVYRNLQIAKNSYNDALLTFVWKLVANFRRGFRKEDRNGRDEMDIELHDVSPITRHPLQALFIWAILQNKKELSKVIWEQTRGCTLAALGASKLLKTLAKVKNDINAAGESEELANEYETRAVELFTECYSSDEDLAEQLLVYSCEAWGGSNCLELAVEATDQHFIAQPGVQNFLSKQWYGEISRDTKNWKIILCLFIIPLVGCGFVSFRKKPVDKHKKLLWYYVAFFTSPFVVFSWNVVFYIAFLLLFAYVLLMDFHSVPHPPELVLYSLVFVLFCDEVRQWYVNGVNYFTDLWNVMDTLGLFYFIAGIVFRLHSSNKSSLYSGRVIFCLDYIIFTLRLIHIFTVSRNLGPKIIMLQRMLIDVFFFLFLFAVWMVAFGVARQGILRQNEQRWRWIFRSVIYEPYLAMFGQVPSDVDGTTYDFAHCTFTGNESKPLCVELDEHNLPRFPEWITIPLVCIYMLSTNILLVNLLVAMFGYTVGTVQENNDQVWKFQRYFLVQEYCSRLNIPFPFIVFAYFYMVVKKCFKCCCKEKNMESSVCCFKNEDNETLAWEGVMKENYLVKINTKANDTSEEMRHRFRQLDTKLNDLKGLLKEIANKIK
# Description: as §1
# [3] = target: T1, hTRPM8; assay: EC50 measurement on hTRPM8 (response curve); assay type: cell-based; conditions: for EC50: hTRPM8, response curve; for EC50 on hTRPM8 compared with WS-3 and WS-5: Table 3
# Description: as §1
# A response curve was developed for compounds 1, 3, 5 and 37 which made it possible to determine the EC50 (half maximal effective concentration) values on hTRPM8 and compare them with the EC50 values of the comparative compounds (Table 3).
# [4] = Chewing gum evaluation protocol, cooling intensity rated 0-10 by 6 trained panelists over 10 min; assay type: in vivo, human; conditions: 0.20 wt % in chewing gum, chewed 10 min, 6 panelists
# Description: An unflavored chewing gum paste was prepared using the following formulation: Sorbitol (52.4 wt %), gum base (30.0 wt %), maltitol syrup (7.0 wt %), glycerine (5.0 wt %), mannitol (5.0 wt %), soy lecithin (0.4 wt %), acesulfame-K (0.1 wt %), and aspartame (0.1 wt %). The paste was warmed 1-2 min using a micro-wave to soften the mixture. After adding the cooling agent (0.20 wt % Compound 1), the paste was kneaded to homogenise the product. Then the paste is stretched using a sheeter, flatted at 2 mm thick, and cut in regular rectangular pieces (12×42 mm). Chewing-gums pieces are packed in plastic bag and put 1 week at room temperature to let them stabilise. Comparative chewing gum samples (A-C) were also prepared using 0.26 wt % PHYSCOOL™; 0.21 wt % WS-3™; and 0.17 wt % WS-23™, respectively.
# A chewing gum evaluation protocol was performed by 6 trained panelists, where the chewing gum was chewed for 10 min while holding the panelist's mouth closed. The cooling intensity was rated from 0 (not perceived) to 10 (very intense) at 5 sec, 15 sec, 30 sec, 45 sec, 1 min, 1.5 min, 2 min, and then every minute until 10 minutes.
# [5] = Organoleptic evaluation in still water by a trained panel (cooling intensity over time); assay type: in vivo, human
# Description: Inventive compounds 1, 2 and 5 were organoleptically evaluated in still water by a trained panel. […] […] These inventive compounds appear to behave similarly to the comparative compounds.
# T1 sequence (Q7Z2W7 whole entry): as above
activation at 5 µM [1],EC50 [3],Compound,"activation on hTRPM8 compared with comparative molecules (Physcool, WS-5, WS-3, l-isopulegol, l-menthol, menthyl lactate) [2]",further results
3%,–,"CC(C)[C@@H]1CC[C@@H](C)CC12COCOC2 [Compound 6, (7S,1OR)-7-isopropyl-10-methyl-2,4-dioxaspiro[5.5]undecane]",–,% activation vs iciline ([2]; concentration 104 μM): 32%
–,8 µM,"CCNC(=O)C1CC(C)CCC1C(C)C (stereo not drawn) [WS-3 ™, reference compound]",–,% activation vs iciline ([2]; concentration 119 μM): 76%
–,1 µM,"CCOC(=O)CNC(=O)[C@@H]1C[C@H](C)CC[C@H]1C(C)C [WS-5 ™, reference compound]",–,% activation vs iciline [2]: 73%
65%,70 µM,"CC(C)[C@@H]1CC[C@@H](C)C[C@H]1C(CO)CO [Compound 37, 2-((1R,2S,5R)-2-isopropyl-5-methylcyclohexyl)propane-1,3-diol]",–,–
16%,39 µM,"COc1cc(C2OCC3(CO2)C[C@H](C)CC[C@H]3C(C)C)ccc1O (stereo partly drawn) [Compound 5, 4-((7S,10R)-7-isopropyl-10-methyl-2,4-dioxaspiro[5.5]undecan-3-yl)-2-methoxyphenol]",greater activations than the comparative molecules,% activation vs iciline ([2]; concentration 96 μM): 176%
-1%,–,"CCC1OCC2(CO1)C[C@H](C)CC[C@H]2C(C)C (stereo partly drawn) [Compound 4, (7S,1OR)-3-ethyl-7-isopropyl-10-methyl-2,4-dioxaspiro[5.5]undecane]",–,% activation vs iciline ([2]; concentration 101 μM): 39%
94%,2.5 µM,"CC(C)[C@@H]1CC[C@@H](C)CC12COC(C)(C)OC2 [Compound 3, (7S,1OR)-7-isopropyl-3,3,10-trimethyl-2,4-dioxaspiro[5.5]undecane]",greater activations than the comparative molecules,% activation vs iciline ([2]; concentration 104 μM): 99%; EC50 on hTRPM8 compared with WS-3 and WS-5 [3]: EC50 values lower than WS-3™ and similar to WS-5™
99%,4.6 µM,"CC(C)[C@@H]1CC[C@@H](C)CC1(CO)CO [Compound 1, ((2S,5R)-2-isopropyl-5-methylcyclohexane-1,1-diyl)dimethanol]",greater activations than the comparative molecules,"% activation vs iciline ([2]; concentration 156 μM): 199%; duration of cooling intensity in chewing gum, similar to WS-3 (0.21 wt %) and WS-23 (0.17 wt %) [4]: long cooling intensity out to 10 minutes; cooling intensity and duration in chewing gum versus Comparative Sample A (0.26 wt % PHYSCOOL) ([4]; average): more initial cooling intensity and longer lasting duration than Comparative Sample A; cooling effect versus Physcool ([5]; equimolar, larger panel, over 10 min, FIG. 3): persistent cooling effect similar to Physcool® but with a greater intensity; freshness in the mouth ([5]; still water, trained panel): freshness in the mouth with both an attack and a good persistence; EC50 on hTRPM8 compared with WS-3 and WS-5 [3]: EC50 values lower than WS-3™ and similar to WS-5™"
3%,–,"CC1OCC2(CO1)C[C@H](C)CC[C@H]2C(C)C (stereo partly drawn) [Compound 2, (7S,1OR)-7-isopropyl-3,10-dimethyl-2,4-dioxaspiro[5.5]undecane]",–,% activation vs iciline ([2]; concentration 109 μM): 26%
